A value given as a limit tells only on which side of the number the result lay.

Data on eight molecules can be found in publication PMC12655351, “Synthesis and Anticancer Activity Evaluation of New 5-((5-Nitrofuran-2-yl)allylidene)-2-thioxo-4-thiazolidinones” (Pharmaceuticals, 2025).

One data set has as its system SF-539. The experiment in a line: cells. Particulars: Homo sapiens, SF-539, 48 h.
For a further data set, the system named is MDA-MB-231 cell line. The experiment in a line: Annexin V-FITC/propidium iodide flow cytometry. Format: cell-based, human. Particulars: 24 h. As to the method:
Similarly to Figure 3, Figure 4 showcases the flow cytometric assessment of compounds effects on apoptosis induction on the MDA-MB-231 cell line after 24 h of incubation with tested structures. For this cell line, based on previous results, higher concentrations of tested compounds were chosen: 5 and 10 μM. […] At the same time, compound 12b showcased 7.3% of early and late apoptotic cells, 1.2% of necrotic cells in 5 μM concentration, and 13.8% and 22.3% in 10 μM concentration, consequently.
(§1) To conduct induction of apoptosis on MCF-7 and MDA-MB-231 cell lines, three compounds with the lowest IC50 values were selected (2b, 12b, 14b). The concentration of these compounds depended on the cell line. For MCF-7 cell line concentrations of 1 and 5 μM were used, while for MDA-MB-231 cell line concentrations were 5 and 10 μM. For both cell lines doxorubicin was used as a reference compound in 1 and 5 μM concentrations. This study was evaluated using a flow cytometer (BD FACSCanto II, Becton Dickinson Biosciences Systems, San Jose, CA, USA) and Annexin V binding Apoptosis Detection Kit II (BD Biosciences, San Diego, CA, USA). Cells were seeded in 6-well culture plates cultured in accordance with the previously described methodology. The medium was removed from wells and then cells were washed with PBS. A cell suspension was prepared in the binding buffer provided in the kit at a concentration of 1 × 10^6 cells/mL. A total of 100 µL of cell suspension was collected from each sample and transferred to the tubes. Afterwards, 5 µL of Annexin V-FITC and 4 µL of propidium iodide (PI) were added to each tube and then the tubes were incubated in the dark for 15 min at room temperature. After incubation, the suspension was supplemented to 300 µL with a binding buffer and immediately read in a BD FACSCanto II flow cytometer (Becton Dickinson Biosciences, San Jose, CA, USA), where 10,000 events per sample were measured. Results were analyzed using FACSDiva Software Version 6.1.3. (BD Biosciences Systems, San Jose, CA, USA).

For a further data set, the system named is MCF-7 cell line. The experiment in a line: Annexin V-FITC/propidium iodide flow cytometry. Format: cell-based, human. The note with it: 24 h. How it is done:
The three chosen compounds, 2b, 12b, and 14b, were tested using Annexin V-FITC and propidium iodide to assess their effects on apoptosis induction on MCF-7 and MDA-MB-231 cell lines. To evaluate the population of cells, four states were determined: unstained cells (alive), cells stained with propidium iodide (necrotic), cells stained with FITC-labeled Annexin V (early apoptotic), and cells stained with both Annexin V and propidium iodide (late apoptotic). […] In a concentration of 5 μM the values were 8.5% and 12.2%, respectively. For 12b in a concentration equal to 1 μM, the obtained results showcased 7.2% of cells in early and late apoptosis and 0.7% in a state of necrosis. For 5 μM concentration results were 23.7% and 11.5%, respectively.
as §1

The test system of another data set is ACHN. The note with it: human, 48 h.
In a further data set the test system is SF-295. Particulars: human, 48 h.
Another data set concerns NCI-H322M. The note with it: human, 48 h.
For a further data set, the system named is NCI-H266. Particulars: human, 48 h.
Another data set relates to SNB-19. The note with it: human, 48 h.
A further data set has as its system SNB-75. Particulars: human, 48 h.
Another data set concerns SK-MEL-2. Particulars: human, 48 h.
Another data set has as its system EKVX. Particulars: human, 48 h.
In data set [1] the test system is reactive oxygen species in MCF-7 cells. The experiment in a line: H2DCFDA and DAPI double staining. Format: cell-based, human. Particulars: MCF-7, 1 and 5 μM, one hour. As to the method:
(§2) The double staining method was applied to analyze novel compounds’ effects on the generation of reactive oxygen species. The first dye, H2DCFDA, after conversion to DCF, serves as an indicator of oxidative stress (green fluorescence), while the second one, known as DAPI, was applied to showcase nuclear genetic material of MCF-7 and MDA-MB-231 breast cancer cells (blue fluorescence). The concentrations of compounds were 1 and 5 μM for the MCF-7 cell line and 5 and 10 μM for the MDA-MB-231 cell line. The incubation time after treatment was one hour in both cell lines.
(§3) The influences of 2b, 12b, 14b, and doxorubicin (1 and 5 µM and 5 and 10 µM for MCF-7 and MDA-MB-231 cell lines, respectively) on the generation of reactive oxygen species (ROS) were analyzed. Cells were seeded in 6-well culture plates at 1 × 10^5 cells per well in 1 mL of medium and then treated with compounds for 1 h and then washed with PBS. Double staining was conducted with 20 µM 2′,7′-dichlorodihydrofluorescein diacetate (H2DCFDA) reagent (Thermo Fisher Scientific, Eugene, OR, USA), which is colorless, and is cleaved by intracellular esterases and oxidized to the highly fluorescent 2′,7′-dichlorofluorescein (DCF), and 10 µg/mL of the fluorescent dye 4′,6-diamidino-2-phenylindole (DAPI) (Sigma-Aldrich, St. Louis, MO, USA), which visualizes the nuclear DNA of cells. A Nikon ECLIPSE Ti fluorescence microscope (Nikon, Tokyo, Japan) was used to obtain results which were analyzed using ImageJ software 1.54k (Bethesda, MD, USA). The fluorescence intensity of the DCF reagent was evaluated relative to the control. The number of analyzed cells was above 100.

For data set [2], the system named is reactive oxygen species in MDA-MB-231 cells. The data set is described as follows: H2DCFDA and DAPI double staining. Format: cell-based, human. The note with it: MDA-MB-231, 5 and 10 μM, one hour. As to the method:
as §2, §3

The subject of another data set is M14. The note with it: human, 48 h.
A further data set deals with HOP-92. Particulars: human, 48 h.

A word on the GI50: it is the concentration that inhibits growth by half. Low readings indicate greater sensitivity of the cells, high ones lower sensitivity of the cells. Take `O=C(O)C(c1ccccc1)N1C(=O)/C(=C/C=C/c2ccc([N+](=O)[O-])o2)SC1=S` (stereo not shown) [9b, 2-((Z)-5-((E)-3-(5-Nitrofuran-2-yl)allylidene)-4-oxo-2-thioxothiazolidin-3-yl)-2-phenylacetic acid]: in the data set with SF-539, the GI50 came out at 12 µM.

In the case of `O=C(O)CCN1C(=O)/C(=C/C=C/c2ccc([N+](=O)[O-])o2)SC1=S` [12b, 3-((Z)-5-((E)-3-(5-Nitrofuran-2-yl)allylidene)-4-oxo-2-thioxothiazolidin-3-yl)propanoic acid], in the data set on MDA-MB-231 cell line (MDA-MB-231, 5 μM), the combined apoptotic cells was determined as 7.3% and the necrotic cells is 1.2%. Further, in the data set with MDA-MB-231 cell line (MDA-MB-231, 10 μM), the combined apoptotic cells is listed as 13.8% and the necrotic cells turned out to be 22.3%. The same molecule gave a GI50 with SF-539 of 1.66 µM. In addition, in the data set with MCF-7 cell line (MCF-7, 1 μM), the “cells in late and early apoptosis combined” value worked out at 7.2%; the necrotic cell population is on record as 0.7%. Also, in the data set with MCF-7 cell line (MCF-7, 5 μM), the “cells in late and early apoptosis combined” value is 23.7%; the necrotic cell population is 11.5%.

Molecule `CCCCC(C(=O)O)N1C(=O)/C(=C/C=C/c2ccc([N+](=O)[O-])o2)SC1=S` (stereo not shown) [6b, 2-((Z)-5-((E)-3-(5-nitrofuran-2-yl)allylidene)-4-oxo-2-thioxothiazolidin-3-yl)hexanoic acid] gave a GI50 in the data set on SF-539 of 1.89 µM.

Turning to `CC(C(=O)O)N1C(=O)/C(=C/C=C/c2ccc([N+](=O)[O-])o2)SC1=S` (stereo not shown) [2b, 2-((Z)-5-((E)-3-(5-Nitrofuran-2-yl)allylidene)-4-oxo-2-thioxothiazolidin-3-yl)propanoic acid], in the data set with MDA-MB-231 cell line (MDA-MB-231, 5 μM), the combined apoptotic cells is 7.8% and the necrotic cells came out at 6.6%. In the data set with MDA-MB-231 cell line (MDA-MB-231, 10 μM), the combined apoptotic cells was determined as 7.5% and the necrotic cells is given as 44%. In the data set with MCF-7 cell line (MCF-7, 1 μM), the “cells in late and early apoptosis combined” value was determined as 7.7%; the necrotic cell population came out at 0.7%. Also, in the data set with MCF-7 cell line (MCF-7, 5 μM), the “cells in late and early apoptosis combined” value is 8.5%; the necrotic cell population is reported as 12.2%.

In turn, `CC(C)C(C(=O)O)N1C(=O)/C(=C/C=C/c2ccc([N+](=O)[O-])o2)SC1=S` (stereo not shown) [5b, 3-Methyl-2-((Z)-5-((E)-3-(5-nitrofuran-2-yl)allylidene)-4-oxo-2-thioxothiazolidin-3-yl)butanoic acid] yielded a GI50 in the data set on SF-539 of 1.44 µM.

Take `O=C(O)CCCN1C(=O)/C(=C/C=C/c2ccc([N+](=O)[O-])o2)SC1=S` [13b, 4-((Z)-5-((E)-3-(5-Nitrofuran-2-yl)allylidene)-4-oxo-2-thioxothiazolidin-3-yl)butanoic acid]: the CC50 was 3.72 µM with ACHN; 5.08 µM with SF-295; 22.8 µM in the data set with NCI-H322M; over 100 µM with NCI-H266; 5.5 µM in the data set with SNB-19; 5.49 µM with SNB-75. Also, the CC50 in the data set with SK-MEL-2 came to 4.2 µM; with EKVX, 6.05 µM.

For `O=C(O)CCCCCN1C(=O)/C(=C/C=C/c2ccc([N+](=O)[O-])o2)SC1=S` [14b, 6-((Z)-5-((E)-3-(5-nitrofuran-2-yl)allylidene)-4-oxo-2-thioxothiazolidin-3-yl)hexanoic acid], the combined apoptotic cells in the data set on MDA-MB-231 cell line (MDA-MB-231, 5 μM) was found to be 5.7%; in the data set on MDA-MB-231 cell line (MDA-MB-231, 10 μM), 28.8%. Besides, the necrotic cells came to 1.4% with MDA-MB-231 cell line (MDA-MB-231, 5 μM) and 42.6% in the data set with MDA-MB-231 cell line (MDA-MB-231, 10 μM). Also, the “generation of reactive oxygen species” value in data set [1] and in [2] was “highest generation of ROS” each time. Besides, the CC50 was 5 µM in the data set with ACHN; 6.61 µM in the data set on SF-295; 6.92 µM in the data set on NCI-H322M; 96.3 µM in the data set with NCI-H266; 6.67 µM in the data set on SNB-19; 3.23 µM with M14. The CC50 in the data set on SNB-75 stood at 4.03 µM; with SK-MEL-2 it was 6.87 µM; in the data set with HOP-92 it was 5.84 µM; with EKVX it was 7.52 µM. In addition, the “cells in late and early apoptosis combined” value with MCF-7 cell line (MCF-7, 1 μM) stood at 6.9%; in the data set with MCF-7 cell line (MCF-7, 5 μM), 29.2%. Further, the necrotic cell population with MCF-7 cell line (MCF-7, 1 μM) is on record as 0.6%; with MCF-7 cell line (MCF-7, 5 μM), 11.7%.

The molecule `CCCC(C(=O)O)N1C(=O)/C(=C/C=C/c2ccc([N+](=O)[O-])o2)SC1=S` (stereo not shown) [4b, 2-((Z)-5-((E)-3-(5-Nitrofuran-2-yl)allylidene)-4-oxo-2-thioxothiazolidin-3-yl)pentanoic acid] registered a GI50 in the data set with SF-539 of 2.12 µM.
